Literature values in patent publication US20250319028A1, “PHARMACEUTICAL FORMULATION COMPRISING TACROLIMUS, METHOD FOR THE PREPARATION THEREOF AND USE” (PHARMATHEN S.A., priority 2021, published 2025).

Assays:
[1] = reported, patients

| Solubility in ethanol (ethanol) | Solubility in heptane (heptane) | Solubility in water (water) | SMILES | Overall incidence of drug-induced nephrotoxicity [1] |
| --- | --- | --- | --- | --- |
| freely soluble | practically insoluble | practically insoluble | C=CC[C@@H]1/C=C(\C)C[C@H](C)C[C@H](OC)[C@H]2O[C@@](O)(C(=O)C(=O)N3CCCC[C@H]3C(=O)O[C@H](/C(C)=C/[C@@H]3CC[C@@H](O)[C@H](OC)C3)[C@H](C)[C@@H](O)CC1=O)[C@H](C)C[C@@H]2OC [Tacrolimus monohydrate] |  |
|  |  |  | C=CC[C@@H]1/C=C(\C)C[C@H](C)C[C@H](OC)[C@H]2O[C@@](O)(C(=O)C(=O)N3CCCC[C@H]3C(=O)O[C@H](/C(C)=C/[C@@H]3CC[C@@H](O)[C@H](OC)C3)[C@H](C)[C@@H](O)CC1=O)[C@H](C)C[C@@H]2OC [Tacrolimus] | ≤ 44% |
